In paper PMC12155096 (International Journal of Molecular Sciences, 2025):
Where two headings read alike, the source gives them in different places.

Assays:
human CYP2C9 [1] = target: T1, human CYP2C9 (Homo sapiens, UniProt P11712); assay: biochemical
human CYP1A2 [2] = target: T2, human CYP1A2 (Homo sapiens, UniProt P05177); assay: biochemical
T2 sequence (P05177 1-516): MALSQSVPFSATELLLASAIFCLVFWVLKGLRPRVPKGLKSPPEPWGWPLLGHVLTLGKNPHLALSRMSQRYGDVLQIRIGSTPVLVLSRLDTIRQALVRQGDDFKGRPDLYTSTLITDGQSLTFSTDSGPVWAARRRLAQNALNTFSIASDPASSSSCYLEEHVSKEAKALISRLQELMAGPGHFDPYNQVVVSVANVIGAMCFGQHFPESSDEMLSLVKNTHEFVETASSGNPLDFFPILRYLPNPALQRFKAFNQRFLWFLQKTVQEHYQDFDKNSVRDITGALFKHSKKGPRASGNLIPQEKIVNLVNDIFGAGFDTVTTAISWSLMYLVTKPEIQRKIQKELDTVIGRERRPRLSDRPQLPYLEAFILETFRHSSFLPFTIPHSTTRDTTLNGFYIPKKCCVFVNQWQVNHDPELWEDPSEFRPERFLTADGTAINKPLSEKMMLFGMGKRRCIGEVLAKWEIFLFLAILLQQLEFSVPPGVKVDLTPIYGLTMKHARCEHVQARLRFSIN

human CYP2C19 [3] = target: T3, human CYP2C19 (Homo sapiens, UniProt P33261); assay: biochemical
T3 sequence (P33261 whole entry): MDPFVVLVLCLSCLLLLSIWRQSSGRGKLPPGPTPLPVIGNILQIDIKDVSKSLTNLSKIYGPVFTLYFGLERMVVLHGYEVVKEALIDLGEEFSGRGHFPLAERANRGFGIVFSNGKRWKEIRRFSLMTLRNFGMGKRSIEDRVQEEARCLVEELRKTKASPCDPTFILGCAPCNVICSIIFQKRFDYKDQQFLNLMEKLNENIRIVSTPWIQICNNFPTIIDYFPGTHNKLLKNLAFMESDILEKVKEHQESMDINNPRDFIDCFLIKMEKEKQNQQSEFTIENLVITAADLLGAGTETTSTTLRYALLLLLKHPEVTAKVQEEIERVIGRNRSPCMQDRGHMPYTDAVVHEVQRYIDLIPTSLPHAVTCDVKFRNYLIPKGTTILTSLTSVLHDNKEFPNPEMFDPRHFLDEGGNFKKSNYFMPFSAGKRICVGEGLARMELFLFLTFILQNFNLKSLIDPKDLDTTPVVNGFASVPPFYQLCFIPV

CYP3A4 = CYP3A4 (Homo sapiens, UniProt P08684); assay: biochemical
CYP3A4, sequence (P08684 whole entry): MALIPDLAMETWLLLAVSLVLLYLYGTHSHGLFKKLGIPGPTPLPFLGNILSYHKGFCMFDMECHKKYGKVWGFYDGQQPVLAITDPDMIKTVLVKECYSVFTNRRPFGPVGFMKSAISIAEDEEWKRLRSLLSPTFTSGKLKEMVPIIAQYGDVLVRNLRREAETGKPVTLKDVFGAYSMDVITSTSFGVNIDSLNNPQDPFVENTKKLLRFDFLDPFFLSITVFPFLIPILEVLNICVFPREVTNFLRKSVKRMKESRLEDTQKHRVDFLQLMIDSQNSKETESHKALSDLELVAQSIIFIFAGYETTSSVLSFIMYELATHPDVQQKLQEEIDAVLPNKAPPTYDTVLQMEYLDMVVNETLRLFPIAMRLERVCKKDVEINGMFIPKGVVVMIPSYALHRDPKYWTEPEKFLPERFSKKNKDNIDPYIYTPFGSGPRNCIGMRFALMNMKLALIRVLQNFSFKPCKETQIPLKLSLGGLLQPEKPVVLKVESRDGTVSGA

human CYP2D6 = human CYP2D6 (Homo sapiens, UniProt P10635)
human CYP2D6, sequence (P10635 whole entry): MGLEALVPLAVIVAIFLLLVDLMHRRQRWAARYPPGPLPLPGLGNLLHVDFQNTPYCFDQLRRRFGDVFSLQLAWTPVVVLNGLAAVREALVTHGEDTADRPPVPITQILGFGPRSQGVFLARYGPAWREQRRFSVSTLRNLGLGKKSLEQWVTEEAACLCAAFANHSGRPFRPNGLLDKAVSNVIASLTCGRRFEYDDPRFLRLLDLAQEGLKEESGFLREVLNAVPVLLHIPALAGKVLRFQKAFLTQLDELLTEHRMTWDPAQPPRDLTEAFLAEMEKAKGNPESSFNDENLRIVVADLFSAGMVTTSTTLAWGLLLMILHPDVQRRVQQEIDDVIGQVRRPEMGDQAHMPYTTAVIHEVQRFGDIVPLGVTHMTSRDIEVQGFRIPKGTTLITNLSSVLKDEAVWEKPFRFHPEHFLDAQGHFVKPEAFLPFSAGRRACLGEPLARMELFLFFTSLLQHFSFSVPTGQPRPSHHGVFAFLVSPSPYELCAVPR

human CYP2C19 [4] = target: T3, human CYP2C19
human CYP2C9 [5] = target: T1, human CYP2C9
human CYP1A2 [6] = target: T2, human CYP1A2
[7] = CYP2C9 AC50 (half-maximal activity concentration)
[8] = CYP1A2 AC50 (half-maximal activity concentration)
[9] = CYP2C19 AC50 (half-maximal activity concentration)
[10] = CYP3A4 AC50 (half-maximal activity concentration)

T1 sequence (P11712 whole entry): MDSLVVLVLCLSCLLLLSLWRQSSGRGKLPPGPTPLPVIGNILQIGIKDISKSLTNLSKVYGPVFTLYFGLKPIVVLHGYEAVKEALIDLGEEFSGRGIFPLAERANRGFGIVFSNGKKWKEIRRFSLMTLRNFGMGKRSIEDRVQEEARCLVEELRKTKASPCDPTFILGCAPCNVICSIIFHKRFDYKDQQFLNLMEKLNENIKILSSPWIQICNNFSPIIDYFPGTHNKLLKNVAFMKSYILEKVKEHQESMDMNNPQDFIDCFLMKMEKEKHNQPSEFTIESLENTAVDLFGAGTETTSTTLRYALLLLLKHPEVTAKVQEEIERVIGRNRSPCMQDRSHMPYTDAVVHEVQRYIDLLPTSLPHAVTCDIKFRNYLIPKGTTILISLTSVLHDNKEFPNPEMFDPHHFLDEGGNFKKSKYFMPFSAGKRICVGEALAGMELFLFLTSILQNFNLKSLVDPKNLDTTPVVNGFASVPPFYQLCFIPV

| Compound | AC50 (human CYP2C9 [1]; [7]) | AC50 (human CYP1A2 [2]; [8]) | AC50 (human CYP2C19 [3]; [9]) | AC50 (CYP3A4; [10]) | CYP2D6 AC50 (half-maximal activity concentration) (human CYP2D6) | CYP2C19 AC50 (half-maximal activity concentration) (human CYP2C19 [4]) | AC50 (human CYP2C9 [1]) | AC50 (human CYP1A2 [2]) | AC50 (CYP3A4) | AC50 (human CYP2C19 [3]) | CYP2C9 AC50 (half-maximal activity concentration) (human CYP2C9 [5]) | CYP1A2 AC50 (half-maximal activity concentration) (human CYP1A2 [6]) |
| --- | --- | --- | --- | --- | --- | --- | --- | --- | --- | --- | --- | --- |
| Cc1c(C)c([N+](=O)[O-])c(C(C)(C)C)c([N+](=O)[O-])c1C | 51.7 µM | 17.5 µM | 22.8 µM | 12.2 µM | Inactive |  |  |  |  |  |  |  |
| O=[N+]([O-])c1cc(C(F)(F)F)cc([N+](=O)[O-])c1Cl | 18 µM | 64.7 µM | 56.7 µM | 49.2 µM | Inconclusive inhibitor |  |  |  |  |  |  |  |
| CC=CC(=O)N(CC)c1ccccc1C (mixture of isomers) [Crotamiton] | 40.1 µM | 31.4 µM |  | 7.51 µM | Inactive | Inconclusive inhibitor |  |  |  |  |  |  |
| N#CCCC(Br)(C#N)CBr (stereo not shown) [1,2-Dibromo-2,4-dicyanobutane] | 8.43 µM | 14.6 µM | 11.5 µM | 9.92 µM | Inconclusive inhibitor |  |  |  |  |  |  |  |
| c1cnc2c(c1)ccc1cccnc12 [1,10-Phenanthroline] | 4.65 µM | 11.7 µM | 11.9 µM | 69.5 µM | Inconclusive inhibitor |  |  |  |  |  |  |  |
| CCCCCCCCCCCCN1CCCC1=O [1-Dodecyl-2-pyrrolidinone] |  |  |  |  | Inactive | Inconclusive inhibitor | 37.9 µM | 29.7 µM | 9.84 µM |  |  |  |
| O=[N+]([O-])c1cccc2ccccc12 [1-Nitronaphthalene] | 31.2 µM | 2.96 µM | 59.8 µM | 15.6 µM | Inactive |  |  |  |  |  |  |  |
| Oc1c(Cl)cc(Cl)c(Cl)c1Cl [2,3,4,6-Tetrachlorophenol] | 28.3 µM | 57.1 µM |  | 67 µM | Inactive | Inactive |  |  |  |  |  |  |
| Oc1c(Cl)c(Cl)cc(Cl)c1Cl [2,3,5,6-Tetrachlorophenol] | 22.7 µM | 66.6 µM |  | 58.1 µM | Inactive | Inconclusive inhibitor |  |  |  |  |  |  |
| O=C(O)c1cc(I)cc(I)c1I [2,3,5-Triiodobenzoic acid] | 20.9 µM | 57.3 µM |  | 75.1 µM | Inactive | Inconclusive inhibitor |  |  |  |  |  |  |
| Oc1c(Cl)ccc(Cl)c1Cl [2,3,6-Trichlorophenol] | 35.7 µM | 37 µM |  | 55.4 µM | Inconclusive inhibitor | Inconclusive inhibitor |  |  |  |  |  |  |
| CCCCOC(=O)COc1ccc(Cl)cc1Cl [2,4-D 1-butyl ester] |  |  |  |  | Inactive |  | 35.6 µM | 35.7 ± 4.11 µM | 2.69 ± 0.56 µM | 30.5 ± 10 µM |  |  |
| CCCCCCCCCC(C)C=O (stereo not shown) [2-Methylundecanal] | 65.1 µM | 74.2 µM |  | 87.3 µM | Inactive | Inconclusive inhibitor |  |  |  |  |  |  |
| Oc1nc(Cl)c(Cl)cc1Cl [3,5,6-Trichloro-2-pyridinol] | 45.4 µM | 47.9 µM |  | 65.8 µM | Inconclusive inhibitor | Inconclusive inhibitor |  |  |  |  |  |  |
| CCNc1nc(NC(C)C)nc(SC)n1 [Ametryn] | 20.8 µM | 9.81 µM |  | 29.2 µM | Inactive | Inconclusive inhibitor |  |  |  |  |  |  |
| O=C(CCCN1CCC(O)(c2ccc(Br)cc2)CC1)c1ccc(F)cc1 [Bromperidol] |  |  |  | 4.92 µM | Inconclusive inhibitor | Inactive |  |  |  |  | Inactive | Inactive |

| Compound | AC50 (human CYP2C9 [1]; [7]) | AC50 (human CYP1A2 [2]; [8]) | AC50 (human CYP2C19 [3]; [9]) | AC50 (CYP3A4; [10]) | CYP2D6 AC50 (half-maximal activity concentration) (human CYP2D6) | CYP2C19 AC50 (half-maximal activity concentration) (human CYP2C19 [4]) | AC50 (human CYP2C9 [1]) | AC50 (human CYP1A2 [2]) | AC50 (CYP3A4) | AC50 (human CYP2C19 [3]) | CYP2C9 AC50 (half-maximal activity concentration) (human CYP2C9 [5]) | CYP1A2 AC50 (half-maximal activity concentration) (human CYP1A2 [6]) |
| --- | --- | --- | --- | --- | --- | --- | --- | --- | --- | --- | --- | --- |
| O=C(NC(=O)c1c(F)cccc1F)Nc1cc(Cl)c(Oc2ncc(C(F)(F)F)cc2Cl)c(Cl)c1 [Chlorfluazuron] |  |  |  | 9.2 µM | Inactive | Inconclusive inhibitor |  |  |  |  | Inconclusive inhibitor | Inactive |
| CCSC(=O)N(CC)C1CCCCC1 [Cycloate] |  |  |  | 31.7 µM | Inactive | Inconclusive inhibitor |  |  |  |  | Inconclusive inhibitor | Inactive |
| N#Cc1c(Cl)cccc1Cl [Dichlobenil] |  |  |  | 17.8 µM | Inactive | Inactive |  |  |  |  | Inconclusive inhibitor | Inconclusive inhibitor |
| CCOC(=O)CCCCCCCCC(=O)OCC [Diethyl decanedioate] | 42.2 µM | 35.2 µM |  | 26.2 µM | Inactive | Inconclusive inhibitor |  |  |  |  |  |  |
| CCC(C)c1cc([N+](=O)[O-])cc([N+](=O)[O-])c1O (stereo not shown) [Dinoseb] |  | 58.1 µM | 76.8 µM | 33.9 µM |  |  |  |  |  |  |  |  |
| CC(C)(C)c1cc([N+](=O)[O-])cc([N+](=O)[O-])c1O [Dinoterb] | 17.8 µM | 48 µM |  | 24.7 µM | Inconclusive inhibitor | Inconclusive inhibitor |  |  |  |  |  |  |
| C[C@]12CC[C@@H]3c4ccc(OC(=O)N(CCCl)CCCl)cc4CC[C@H]3[C@@H]1CC[C@@H]2O [Estramustine] |  |  |  | 16.9 µM | Inactive | Inactive |  |  |  |  | Inactive | Inactive |
| CCC1(c2ccccc2)CCC(=O)NC1=O (stereo not shown) [Glutethimide] |  |  |  | 26 µM | Inactive | Inconclusive inhibitor |  |  |  |  | Inconclusive inhibitor | Inactive |
| C[C@@H]1CC[C@@]2(OC1)O[C@H]1C[C@H]3[C@@H]4CC[C@H]5C[C@@H](O)CC[C@]5(C)[C@H]4CC(=O)[C@]3(C)[C@H]1[C@@H]2C [Hecogenin] |  |  |  | 0.98 µM | Inactive | Inactive |  |  |  |  | Inactive | Inactive |
| O=C(O)CCCc1c[nH]c2ccccc12 [Indole-3-butyric acid] |  |  |  | 13.4 µM | Inactive | Inconclusive inhibitor |  |  |  |  | Inactive | Inactive |
| O=C(CCOCCOCCOCCOCCC(=O)Nc1c(I)cc(I)c(C(=O)O)c1I)Nc1c(I)cc(I)c(C(=O)O)c1I [Iodoxamic Acid] |  |  |  |  | Inactive | Inactive |  |  | 5.65 ± 2.66 µM |  | Inactive | Inactive |
| Oc1c(Br)c(Br)c(Br)c(Br)c1Br [Pentabromophenol] | 30.1 µM | 57.8 µM |  | 70.2 µM | Inactive | Inconclusive |  |  |  |  |  |  |
| Oc1c(Cl)c(Cl)c(Cl)c(Cl)c1Cl [Pentachlorophenol] |  | 67.4 µM | 52.3 µM | 54.4 µM | Inactive |  |  |  |  |  |  |  |
| O=C(Oc1ccccc1)c1ccccc1 [Phenyl benzoate] |  |  |  |  | Inactive | Inactive | 62.1 µM | 71 µM | 58.7 µM |  |  |  |
| CC(=O)[C@H]1[C@H](C#N)C[C@H]2[C@@H]3CC=C4C[C@@H](O)CC[C@]4(C)[C@H]3CC[C@@]21C [Pregnenolone carbonitrile] |  |  |  | 2.22 µM | Inactive | Inactive |  |  |  |  | Inconclusive inhibitor | Inactive |
| O=C1OC(=O)c2c(Cl)c(Cl)c(Cl)c(Cl)c21 [Tetrachlorophthalic anhydride] |  |  | 89.4 µM | 34.7 µM | Inconclusive inhibitor |  |  |  |  |  | Inactive | Inactive |
